{"source": "ChEMBL document CHEMBL4419177", "about": "“Crystalline forms of a lysyl oxidase-like 2 inhibitor and methods of making” (2018)", "type_in_all_cases": "physicochemical", "key": {"[1]": {"assay": "Solubility of compound ( form 1 ) in 150 uL water at 30 mg", "conditions": "buffer"}, "[2]": {"assay": "Solubility of compound ( form 1 ) in 10 uL water at 10 mg", "conditions": "buffer"}, "[3]": {"assay": "Stability under 3 month accelerated condition (40 degC/75% RH ) assessed as changes in purity or absorption of moisture", "conditions": "2191.5 h"}, "[4]": {"assay": "Stability under 1-year ICH study conditions assessed as chemical or physical changes", "conditions": "8766 h"}, "[5]": {"assay": "Stability under 2-year ICH study conditions assessed as chemical or physical changes", "conditions": "17532 h"}, "[6]": {"assay": "Stability of the compound as a solid form exposed to heat at 100 degC incubated for 24 hrs by HPLC analysis"}, "[7]": {"assay": "Stability of the compound as a solid form exposed to light (max 365 nm) incubated for 24 hrs by HPLC analysis"}, "[8]": {"assay": "Stability of the compound as a solid form exposed to heat at 50 degC incubated for 24 hrs by HPLC analysis"}}, "data": [{"smiles": "Cl.NCc1cc(Oc2cccc(C(=O)N3C[C@@H](O)[C@H](F)C3)c2)nc(C(F)(F)F)c1", "values": [{"measurement": "solubility", "setting": "[1]", "value": "Soluble"}, {"measurement": "solubility", "setting": "[2]", "value": "Soluble"}, {"measurement": "Stability", "setting": "[3]", "value": "Stable"}]}, {"smiles": "CS(=O)(=O)O.NCc1cc(Oc2cccc(C(=O)N3C[C@@H](O)[C@H](F)C3)c2)nc(C(F)(F)F)c1", "values": [{"measurement": "Stability", "setting": "[4]", "value": "Stable"}, {"measurement": "Stability", "setting": "[5]", "value": "Stable"}, {"measurement": "Stability", "setting": "[6]", "value": "Stable"}, {"measurement": "Stability", "setting": "[7]", "value": "Stable"}, {"measurement": "Stability", "setting": "[8]", "value": "Stable"}]}]}
